From ChEMBL document CHEMBL3046202, “Synthesis, spectral studies, antimicrobial and insect antifeedant potent keto oxiranes” (2011) come the findings set out here.

Test [1] has as its system Achaea janata. The test can be described thus: Antifeedant activity against fourth-instar larval stage of Achaea janata L. in castor leaves assessed as decrease in leaf disc consumption at 50 to 200 ppm treated for 5 mins before larval infestation by leaf-disc bioassay method. Type of test: functional, organism-based.
The next test has as its system Klebsiella. In words: Antibacterial activity against Klebsiella assessed as diameter of growth zone inhibition at 250 ug/ml after 24-45 hrs by disc diffusion technique. Type of test: functional. The note with it: read-out: DIZ. (A growth-free zone around the sample is the usual read-out of agar diffusion tests.)
A further test relates to Pseudomonas. In words: Antibacterial activity against Pseudomonas assessed as diameter of growth zone inhibition at 250 ug/ml after 24-45 hrs by disc diffusion technique. Type of test: functional. The note with it: read-out: DIZ.
Test [2] deals with Enterococcus faecalis. In words: Antibacterial activity against Enterococcus faecalis assessed as growth inhibition at 250 ug/ml after 24-45 hrs by disc diffusion technique. Type of test: functional, organism-based.
The test system of a further test is Candida albicans. The test can be described thus: Antifungal activity against Candida albicans assessed as diameter of growth zone inhibition at 250 ug/ml after 72 hrs by disc diffusion technique. Type of test: functional. As to conditions: read-out: DIZ.
For a further test, the system named is Escherichia coli. In words: Antibacterial activity against Escherichia coli assessed as diameter of growth zone inhibition at 250 ug/ml after 24-45 hrs by disc diffusion technique. Type of test: functional. As to conditions: read-out: DIZ.
A further test has as its system Proteus vulgaris. The test can be described thus: Antibacterial activity against Proteus vulgaris assessed as diameter of growth zone inhibition at 250 ug/ml after 24-45 hrs by disc diffusion technique. As to conditions: read-out: DIZ. Type of test: functional.
A further test has as its system Penicillium. The test can be described thus: Antifungal activity against Penicillium assessed as growth inhibition at 50 ug/ml after 72 hrs by dilution method. Type of test: functional, organism-based.
In another test the test system is Aspergillus niger. In words: Antifungal activity against Aspergillus niger assessed as growth inhibition at 50 ug/ml after 72 hrs by dilution method. The class given is functional, organism-based.
The subject of another test is Staphylococcus aureus. The test can be described thus: Antibacterial activity against Staphylococcus aureus assessed as diameter of growth zone inhibition at 250 ug/ml after 24-45 hrs by disc diffusion technique. As to conditions: read-out: DIZ. The class given is functional.
Test [3] relates to Enterococcus faecalis. The test can be described thus: Antibacterial activity against Enterococcus faecalis assessed as diameter of growth zone inhibition at 250 ug/ml after 24-45 hrs by disc diffusion technique. Type of test: functional. As to conditions: read-out: DIZ.
Test [4] has as its system Achaea janata. In words: Antifeedant activity against fourth-instar larval stage of Achaea janata L. in castor leaves assessed as decrease in leaf disc consumption at 200 ppm treated for 5 mins before larval infestation by leaf-disc bioassay method. The class given is functional, organism-based.

Activity calls are given as the source filed them. No cut-off for these calls is given here.

Regarding `O=C(c1ccc(-c2ccccc2)cc1)[C@H]1O[C@@H]1c1ccc(Cl)cc1`, in the test on Achaea janata [1], the outcome was Active. Moreover, the zone of inhibition at 250 µg/mL with Klebsiella stood at 13 mm; in the test with Pseudomonas it was 13 mm; in the test with Candida albicans, 8 mm; with Escherichia coli it was 13 mm; in the test on Proteus vulgaris, 13 mm; in the test on Staphylococcus aureus, 13 mm. In addition, the “growth inhibition (GI)” value with Enterococcus faecalis [2], in the test on Penicillium and in the test on Aspergillus niger was “inactive” in each case.
As for `CN(C)c1ccc([C@H]2O[C@@H]2C(=O)c2ccc(-c3ccccc3)cc2)cc1`, the zone of inhibition at 250 µg/mL with Klebsiella amounted to 13 mm; in the test with Pseudomonas it was 20 mm; with Candida albicans, 8 mm; in the test on Escherichia coli, 20 mm; in the test with Proteus vulgaris, 13 mm; with Staphylococcus aureus, 20 mm. The “growth inhibition (GI)” value with Enterococcus faecalis [2] is “inactive”. Besides, the “growth inhibition (GI)” value in the test on Penicillium and with Aspergillus niger was “Active” throughout.
As to `O=C(c1ccc(-c2ccccc2)cc1)[C@H]1O[C@@H]1c1ccc(O)cc1`, the zone of inhibition at 250 µg/mL in the test on Klebsiella is 13 mm; with Pseudomonas, 13 mm; with Candida albicans it was 20 mm; with Escherichia coli, 13 mm; with Proteus vulgaris, 13 mm; with Staphylococcus aureus it was 13 mm. Besides, the “growth inhibition (GI)” value in the test on Enterococcus faecalis [2] is “inactive”.
In the case of `Nc1ccc([C@H]2O[C@@H]2C(=O)c2ccc(-c3ccccc3)cc2)cc1`, the zone of inhibition at 250 µg/mL in the test on Klebsiella was 20 mm; with Pseudomonas it was 13 mm; with Escherichia coli, 20 mm; in the test on Enterococcus faecalis [3] it was 20 mm; with Proteus vulgaris, 13 mm; in the test on Staphylococcus aureus, 20 mm.
With `Cc1ccc([C@H]2O[C@@H]2C(=O)c2ccc(-c3ccccc3)cc2)cc1`, the zone of inhibition at 250 µg/mL in the test with Klebsiella was determined as 8 mm; in the test on Pseudomonas, 13 mm; in the test with Enterococcus faecalis [3], 8 mm; in the test on Proteus vulgaris, 8 mm; with Staphylococcus aureus it was 8 mm. In addition, the “growth inhibition (GI)” value with Aspergillus niger was “inactive”.
As for `Nc1cccc([C@H]2O[C@@H]2C(=O)c2ccc(-c3ccccc3)cc2)c1`, the zone of inhibition at 250 µg/mL with Klebsiella came to 20 mm; in the test on Pseudomonas it was 13 mm; in the test with Escherichia coli it was 20 mm; with Enterococcus faecalis [3], 20 mm; in the test with Proteus vulgaris, 13 mm; with Staphylococcus aureus, 20 mm.
Turning to `O=C(c1ccc(-c2ccccc2)cc1)[C@H]1O[C@@H]1c1cccc([N+](=O)[O-])c1`, the zone of inhibition at 250 µg/mL in the test on Klebsiella, in the test with Pseudomonas, with Escherichia coli, in the test on Proteus vulgaris and in the test on Staphylococcus aureus was 13 mm each time. Further, the “growth inhibition (GI)” value with Enterococcus faecalis [2] is “inactive”.
On to `O=C(c1ccc(-c2ccccc2)cc1)[C@H]1O[C@@H]1c1ccccc1`, for which the zone of inhibition at 250 µg/mL in the test with Klebsiella, in the test with Pseudomonas, with Escherichia coli, in the test with Proteus vulgaris and in the test with Staphylococcus aureus was 8 mm each time. Also, the “growth inhibition (GI)” value in the test on Enterococcus faecalis [2], in the test on Penicillium and in the test on Aspergillus niger was “inactive” throughout.
`O=C(c1ccc(-c2ccccc2)cc1)[C@H]1O[C@@H]1c1ccc([N+](=O)[O-])cc1`: the zone of inhibition at 250 µg/mL with Klebsiella, in the test on Pseudomonas, in the test on Escherichia coli, in the test with Proteus vulgaris and in the test on Staphylococcus aureus was 13 mm each time. The “growth inhibition (GI)” value with Enterococcus faecalis [2], in the test on Penicillium and with Aspergillus niger was “inactive” each time.
`O=C(c1ccc(-c2ccccc2)cc1)[C@H]1O[C@@H]1c1ccccc1[N+](=O)[O-]`: the zone of inhibition at 250 µg/mL in the test on Klebsiella, in the test with Pseudomonas, with Escherichia coli, in the test on Proteus vulgaris and in the test with Staphylococcus aureus was 13 mm throughout. The “growth inhibition (GI)” value in the test with Enterococcus faecalis [2], in the test on Penicillium and with Aspergillus niger was “inactive” each time.
In the case of `O=C(c1ccc(-c2ccccc2)cc1)[C@H]1O[C@@H]1c1cccc(Cl)c1`, the result in the test with Achaea janata [4] was Active. Moreover, the zone of inhibition at 250 µg/mL in the test with Klebsiella, in the test with Pseudomonas, in the test on Escherichia coli, with Proteus vulgaris and in the test on Staphylococcus aureus was 13 mm each time. In addition, in the test with Enterococcus faecalis [2], the “growth inhibition (GI)” value is “inactive”.
Consider `COc1ccc([C@H]2O[C@@H]2C(=O)c2ccc(-c3ccccc3)cc2)cc1`, for which the zone of inhibition at 250 µg/mL in the test with Klebsiella was determined as 13 mm; with Pseudomonas, 13 mm; in the test with Candida albicans it was 20 mm; in the test on Escherichia coli, 13 mm; in the test with Enterococcus faecalis [3] it was 20 mm; in the test with Proteus vulgaris it was 13 mm. Besides, the zone of inhibition at 250 µg/mL in the test with Staphylococcus aureus came to 13 mm. The “growth inhibition (GI)” value with Penicillium is “Active”.
Turning to `O=C(c1ccc(-c2ccccc2)cc1)[C@H]1O[C@@H]1c1cccc(Br)c1`, in the test with Achaea janata [4], the result was Active. Also, the zone of inhibition at 250 µg/mL in the test with Klebsiella worked out at 13 mm; with Pseudomonas, 13 mm; in the test with Candida albicans, 20 mm; in the test on Escherichia coli, 13 mm; with Proteus vulgaris, 13 mm; with Staphylococcus aureus, 13 mm. Besides, the “growth inhibition (GI)” value in the test on Enterococcus faecalis [2] was “inactive”. Besides, the “growth inhibition (GI)” value with Penicillium and with Aspergillus niger was “Active” in each case.
